Several values for one entry are separate records, joined by “and”; a condition that tells them apart may be missing. Equal entries are not always repeated. Toxic doses and inconclusive results are not listed.
System: P388 leukemia ip, CD2F1 mice, survival T/C
Assay: NCI In Vivo Anticancer Drug Screen. Data for tumor model P388 Leukemia (intraperitoneal) in CD2F1 (CDF1) mice
Conditions: endpoint: median survival time, higher = longer survival
Procedure, shortened: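 Mice carrying the transplanted tumor received test compound or vehicle. Survival was recorded in each group, and the value is the treated-group measurement divided by that of the vehicle-treated control group.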

[1] = dose: 60.0 mg/kg/injection, schedule: Q01DX005 (ip), vehicle: Klucel (hydroxypropylcellulose) (HPC)
[2] = dose: 120.0 mg/kg/injection, schedule: Q01DX005 (ip), vehicle: Klucel (hydroxypropylcellulose) (HPC)
[3] = dose: 25.0 mg/kg/injection, schedule: Q01DX009 (ip), vehicle: Klucel (hydroxypropylcellulose) (HPC)
[4] = dose: 100.0 mg/kg/injection, schedule: Q01DX001 (ip), vehicle: saline with Tween-80
[5] = dose: 200.0 mg/kg/injection, schedule: Q01DX001 (ip), vehicle: saline with Tween-80
[6] = dose: 60.0 mg/kg/injection, schedule: Q01DX005 (ip), vehicle: saline with Tween-80
[7] = dose: 120.0 mg/kg/injection, schedule: Q01DX005 (ip), vehicle: saline with Tween-80
[8] = dose: 240.0 mg/kg/injection, schedule: Q01DX005 (ip), vehicle: saline with Tween-80
[9] = dose: 50.0 mg/kg/injection, schedule: Q01DX005 (ip), vehicle: Klucel (hydroxypropylcellulose) (HPC)
[10] = dose: 100.0 mg/kg/injection, schedule: Q01DX005 (ip), vehicle: Klucel (hydroxypropylcellulose) (HPC)
[11] = dose: 200.0 mg/kg/injection, schedule: Q01DX005 (ip), vehicle: Klucel (hydroxypropylcellulose) (HPC)
[12] = dose: 100.0 mg/kg/injection, schedule: Q01DX009 (ip), vehicle: saline with Tween-80
[13] = dose: 200.0 mg/kg/injection, schedule: Q01DX009 (ip), vehicle: saline with Tween-80
[14] = dose: 50.0 mg/kg/injection, schedule: Q01DX005 (ip), vehicle: saline with Tween-80
[15] = dose: 100.0 mg/kg/injection, schedule: Q01DX005 (ip), vehicle: saline with Tween-80
[16] = dose: 200.0 mg/kg/injection, schedule: Q01DX005 (ip), vehicle: saline with Tween-80
[17] = dose: 12.5 mg/kg/injection, schedule: Q01DX009 (ip), vehicle: distilled water + Tween-80
[18] = dose: 25.0 mg/kg/injection, schedule: Q01DX009 (ip), vehicle: distilled water + Tween-80
[19] = dose: 50.0 mg/kg/injection, schedule: Q01DX009 (ip), vehicle: distilled water + Tween-80
[20] = dose: 50.0 mg/kg/injection, schedule: Q01DX009 (ip), vehicle: Klucel (hydroxypropylcellulose) (HPC)
[21] = dose: 100.0 mg/kg/injection, schedule: Q01DX009 (ip), vehicle: Klucel (hydroxypropylcellulose) (HPC)
[22] = dose: 200.0 mg/kg/injection, schedule: Q01DX009 (ip), vehicle: Klucel (hydroxypropylcellulose) (HPC)
[23] = dose: 12.5 mg/kg/injection, schedule: Q01DX009 (ip), vehicle: saline with Tween-80
[24] = dose: 25.0 mg/kg/injection, schedule: Q01DX009 (ip), vehicle: saline with Tween-80
[25] = dose: 50.0 mg/kg/injection, schedule: Q01DX009 (ip), vehicle: saline with Tween-80

With `NC(CSC1(c2cccc3ccccc23)c2ccccc2-c2ccccc21)C(=O)O` (centres undefined) the T/C [1] was 93 % of control, the T/C [2] was 90 % of control and the T/C (dose: 240.0 mg/kg/injection, schedule: Q01DX005 (ip), vehicle: Klucel (hydroxypropylcellulose) (HPC)) was 88 % of control.
In the case of `Oc1c(CNCCCN2CCCC2)cc(Cl)c2cccnc12`, the T/C (dose: 12.5 mg/kg/injection, schedule: Q01DX009 (ip), vehicle: saline) is reported as 102 % of control and 107 % of control, the T/C (dose: 25.0 mg/kg/injection, schedule: Q01DX009 (ip), vehicle: saline) is reported as 91 % of control and 96 % of control and the T/C (dose: 50.0 mg/kg/injection, schedule: Q01DX009 (ip), vehicle: saline) is reported as 88 % of control and 95 % of control. For the same compound, the T/C (dose: 100.0 mg/kg/injection, schedule: Q01DX009 (ip), vehicle: saline) was 110 % of control and 112 % of control.
In the case of `CCC[CH2][Sn]([CH2]CCC)([n]1ccnc1)[n]1ccnc1`, the T/C (dose: 3.12 mg/kg/injection, schedule: Q01DX005 (ip), vehicle: Klucel (hydroxypropylcellulose) (HPC)) is reported as 116 % of control and the T/C (dose: 6.25 mg/kg/injection, schedule: Q01DX005 (ip), vehicle: Klucel (hydroxypropylcellulose) (HPC)) is reported as 110 % of control.
For `CC(=O)NC(CCc1ccc(Cl)c(Cl)c1)c1cccc(O)c(=O)c1` (centres undefined), the T/C (dose: 12.5 mg/kg/injection, schedule: Q01DX009 (ip), vehicle: Klucel (hydroxypropylcellulose) (HPC)) was 105 % of control and 110 % of control and the T/C [3] was 106 % of control and 122 % of control.
For `O=C(CC(c1ccccc1)C(C(=O)O)c1ccccc1)c1ccccc1` (centres undefined), the T/C (dose: 25.0 mg/kg/injection, schedule: Q01DX001 (ip), vehicle: saline with Tween-80) was 92 % of control, the T/C (dose: 50.0 mg/kg/injection, schedule: Q01DX001 (ip), vehicle: saline with Tween-80) was 92 % of control and the T/C [4] was 87 % of control. The T/C [5] was 86 % of control.
For `COC1(C)O[C@@]2(C)c3ccccc3C(=O)[C@@]2(c2ccccc2)O1` (some centres undefined), the T/C [6] was 104 % of control, the T/C [7] was 97 % of control and the T/C [8] was 97 % of control.
`CC(=O)Nc1ccc(S(=O)(=O)c2ccc(NC(C)=O)s2)s1` was tested, and the T/C [9] was 98 % of control, the T/C [10] was 95 % of control and the T/C [11] was 89 % of control.
In the case of `CCC(O)(CC(=O)O)c1ccccc1` (centres undefined), the T/C [12] is reported as 104 % of control and the T/C [13] is reported as 95 % of control.
In the case of `CCOc1ccc(-c2nc3ccc(-c4nc5ccc(N6CCN(C)CC6)cc5[nH]4)cc3[nH]2)cc1`, the T/C (dose: 3.12 mg/kg/injection, schedule: Q01DX005 (ip), vehicle: water) is reported as 159 % of control.
`CC(NC(=O)C(Cc1c[nH]c2ccccc12)NC(=O)OCc1ccccc1)C(=O)O` (centres undefined) was tested, and the T/C [14] was 119 % of control, the T/C [15] was 103 % of control and the T/C [16] was 97 % of control.
`CC1(C)CC(=O)C=C(OS(=O)(=O)C(F)(F)F)C1` was tested, and the T/C [17] was 111 % of control, the T/C [18] was 112 % of control and the T/C [19] was 98 % of control.
With `COc1cc(CC(=O)NCCc2ccsc2)c(CO)cc1OCc1ccccc1` the T/C (dose: 100.0 mg/kg/injection, schedule: Q01DX001 (ip), vehicle: Klucel (hydroxypropylcellulose) (HPC)) was 99 % of control, the T/C (dose: 200.0 mg/kg/injection, schedule: Q01DX001 (ip), vehicle: Klucel (hydroxypropylcellulose) (HPC)) was 101 % of control and the T/C (dose: 400.0 mg/kg/injection, schedule: Q01DX001 (ip), vehicle: Klucel (hydroxypropylcellulose) (HPC)) was 101 % of control.
`CN1C=CC=CC1=C1C(=O)c2ccccc2C1=O` was tested, and the T/C [9] was 96 % of control, the T/C [10] was 104 % of control and the T/C [11] was 107 % of control.
For `CN(CC(=O)O)N=Nc1ccc(C(N)=O)cc1`, the T/C [9] was 100 % of control, the T/C [10] was 96 % of control and the T/C [11] was 100 % of control.
For `CCOC1(C)OC2OC(COC(c3ccccc3)(c3ccccc3)c3ccccc3)C(OC(=O)c3ccccc3)C(OC(=O)c3ccccc3)C2O1` (centres undefined), the T/C [17] was 98 % of control, the T/C [18] was 90 % of control and the T/C [19] was 99 % of control.
In the case of `Cc1cc(Cl)ccc1OCC(C)OC(=O)NC(C)C` (centres undefined), the T/C [20] is reported as 106 % of control, the T/C [21] is reported as 97 % of control and the T/C [22] is reported as 101 % of control.
With `COc1c(C(C)C)cc2c(c1OC)C13CCCC(C)(C)C1C(OC3=O)C2NC(=O)CCN(C)C` (centres undefined) the T/C [3] was 97 % of control, the T/C [20] was 98 % of control and the T/C [21] was 90 % of control.
For `CCCCN(CCCC)CCCNc1c2c(nc3ccc(Cl)cc13)CCCC2`, the T/C (dose: 12.5 mg/kg/injection, schedule: Q01DX005 (ip), vehicle: saline with Tween-80) was 102 % of control, the T/C (dose: 25.0 mg/kg/injection, schedule: Q01DX005 (ip), vehicle: saline with Tween-80) was 104 % of control and the T/C [14] was 99 % of control and 101 % of control.
In the case of `CCCOCC(O)CNCCN` (centres undefined), the T/C [20] is reported as 100 % of control, the T/C [21] is reported as 102 % of control and the T/C [22] is reported as 109 % of control.
With `COc1ccc2nc(-c3ccccc3)cc(C(=O)/C=C/c3ccc(N(C)C)cc3)c2c1` the T/C [14] was 89 % of control, the T/C [15] was 86 % of control and the T/C [16] was 89 % of control.
`CC(=O)NC1C(=O)CC(c2ccccc2)N(C)C1c1ccccc1` (centres undefined) was tested, and the T/C [9] was 101 % of control, the T/C [10] was 97 % of control and the T/C [11] was 90 % of control.
In the case of `CCOC(=O)Cc1ccc(N(CCO)CCO)cc1`, the T/C [6] is reported as 100 % of control, the T/C [7] is reported as 103 % of control and the T/C [8] is reported as 101 % of control.
`COC(=O)C(=O)C(C(=O)c1ccc(F)cc1)c1nc2n(c1O)C(=N)N=N2` (centres undefined) was tested, and the T/C [6] was 102 % of control and the T/C [7] was 86 % of control.
In the case of `CCN(CC)C(C)(C)C(=O)/C=C/c1ccc(Cl)c(Cl)c1`, the T/C (dose: 60.0 mg/kg/injection, schedule: Q01DX005 (ip), vehicle: saline) is reported as 102 % of control, the T/C (dose: 120.0 mg/kg/injection, schedule: Q01DX005 (ip), vehicle: saline) is reported as 101 % of control and the T/C (dose: 240.0 mg/kg/injection, schedule: Q01DX005 (ip), vehicle: saline) is reported as 100 % of control.
`C[n+]1c(/C=C/c2ccccc2Cl)ccc2ccccc21` was tested, and the T/C [23] was 94 % of control, the T/C [24] was 100 % of control and the T/C [25] was 94 % of control.
For `COc1cc(C(NC(N)=O)c2cc3c(cc2OC(C)=O)OCO3)cc(OC)c1OC` (centres undefined), the T/C [1] was 90 % of control and the T/C [2] was 86 % of control.
In the case of `O=C1NC(=O)C2(CCCc3ccc(N(CCCl)CCCl)cc32)N1` (centres undefined), the T/C (dose: 0.38 mg/kg/injection, schedule: Q04DX003 (ip), vehicle: saline with Tween-80) is reported as 108 % of control, the T/C (dose: 0.75 mg/kg/injection, schedule: Q04DX003 (ip), vehicle: saline with Tween-80) is reported as 104 % of control and the T/C (dose: 1.5 mg/kg/injection, schedule: Q04DX003 (ip), vehicle: saline with Tween-80) is reported as 104 % of control. The T/C [23] was 159 % of control, the T/C [24] was 172 % of control and the T/C (dose: 50.0 mg/kg/injection, schedule: Q04DX003 (ip), vehicle: saline with Tween-80) was 181 % of control. The T/C (dose: 100.0 mg/kg/injection, schedule: Q04DX003 (ip), vehicle: saline with Tween-80) was 181 % of control and the T/C (dose: 132.0 mg/kg/injection, schedule: Q04DX003 (ip), vehicle: saline with Tween-80) was 177 % of control.
With `CCOC(=O)Nc1cc(NC(c2ccccc2)c2ccccc2)c2[nH]cnc2n1` the T/C [24] was 88 % of control, the T/C [25] was 88 % of control and the T/C [12] was 117 % of control. For the same compound, the T/C [13] was 96 % of control.
In the case of `CCOC(=O)Nc1c(C)noc1NC(C)=O`, the T/C [4] is reported as 100 % of control, the T/C [5] is reported as 100 % of control and the T/C (dose: 400.0 mg/kg/injection, schedule: Q01DX001 (ip), vehicle: saline with Tween-80) is reported as 95 % of control.
`CN(C)CCNc1ccc(NCCN(C)C)c2c1C(=O)c1ccccc1C2=O` was tested, and the T/C (dose: 2.5 mg/kg/injection, schedule: Q01DX009 (ip), vehicle: distilled water + Tween-80) was 117 % of control, the T/C (dose: 5.0 mg/kg/injection, schedule: Q01DX009 (ip), vehicle: distilled water + Tween-80) was 124 % of control and the T/C (dose: 20.0 mg/kg/injection, schedule: Q01DX009 (ip), vehicle: acid diluted with saline) was 163 % of control. The T/C (dose: 20.0 mg/kg/injection, schedule: Q01DX009 (ip), vehicle: distilled water + Tween-80) was 159 % of control, the T/C (dose: 40.0 mg/kg/injection, schedule: Q01DX009 (ip), vehicle: acid diluted with saline) was 202 % of control and the T/C (dose: 40.0 mg/kg/injection, schedule: Q01DX009 (ip), vehicle: distilled water + Tween-80) was 162 % of control.
